Here are results for eight compounds from ChEMBL document CHEMBL4665837, “Soluble guanylate cyclase stimulators for the treatment of hypertension: Discovery of MK-2947” (Bioorg Med Chem Lett, 2020).

Data set [1] in a line: Oral bioavailability in rat at 2 mg/kg. To be noted: in vivo. The format is ADME, organism-based.
A short description of data set [2]: Half life in rat at 1 mg/kg, iv and 2 mg/kg, po. The format is ADME, organism-based. The note with it: in vivo.
Data set [3] in a line: AUCt/dose in Sprauge-Dawley rat. The format is ADME. To be noted: in vivo.
A short description of data set [4]: Oral bioavailability in Sprauge-Dawley rat. The note with it: Sprague-Dawley, in vivo. The format is ADME, organism-based.
The nature of data set [5]: Oral bioavailability in dog at 10 mg/kg. The format is ADME, organism-based, Canis lupus familiaris. The note with it: in vivo.
Data set [6] in a line: Drug level in SRH rat plasma a 1 mg/kg , po measured after 4 hrs. The format is ADME, organism-based.
Data set [7] in a line: Half life in monkey at 0.5 mg/kg, iv and 2 mg/kg, po. The note with it: rhesus monkey, in vivo. The format is ADME, organism-based, Macaca mulatta.
Data set [8] in a line: Half life in dog at 1 mg/kg, iv and 10 mg/kg, po. The format is ADME, organism-based, Canis lupus familiaris. The note with it: in vivo.
Data set [9] is described as follows: Half life in rat at 2 mg/kg, po. The format is ADME, organism-based. To be noted: in vivo.
The nature of data set [10]: Clearance in monkey at 0.5 mg/kg, iv and 2 mg/kg, po. The format is ADME, organism-based, Macaca mulatta. To be noted: rhesus monkey, in vivo.
A short description of data set [11]: Drug level in SRH rat plasma at 3 mg/kg , po measured after 4 hrs. The format is ADME, organism-based.
A short description of data set [12]: Oral bioavailability in monkey at 2 mg/kg, po. The format is ADME, organism-based, Macaca mulatta. The note with it: rhesus monkey, in vivo.
Data set [13] in a line: Clearance in rat at 1 mg/kg, iv and 2 mg/kg, po. The format is ADME, organism-based. The note with it: in vivo.
A short description of data set [14]: Drug level in SRH rat plasma at 0.3 mg/kg , po measured after 4 hrs. The format is ADME, organism-based.
Data set [15] is described as follows: Clearance in dog at 1 mg/kg, iv and 10 mg/kg, po. The format is ADME, organism-based, Canis lupus familiaris. The note with it: in vivo.
A short description of data set [16]: Half life in Sprauge-Dawley rat. The format is ADME. To be noted: Sprague-Dawley, in vivo.
Data set [17] is described as follows: Total Plasma clearance in Sprauge-Dawley rat. The format is ADME. To be noted: Sprague-Dawley.

In general, bioavailability refers to dose-corrected exposure relative to a reference, in per cent. Usually half-life stands for the time needed for the level to fall by half in the phase considered. On to `COC(=O)N(C)c1c(N)nc(-c2nc(Cc3ccccc3F)n3ccccc23)nc1N`, for which, in data set [1], the bioavailability amounted to 15%. This compound gave a half-life in data set [2] of 0.9 h.
The matching figures for `COC(=O)N(C)c1c(N)nc(-c2nc(Cc3ccccc3F)n3ncccc23)nc1N`: 4% and 0.6 h.
In data set [3], `COC(=O)Nc1c(N)nc(-n2nc(Cc3c(F)ccc(F)c3F)c3cc(Cl)ccc32)nc1N` showed an AUCt/dose of 25.2 µM·kg·h/mg. Also, the bioavailability in data set [4] worked out at 37%.
Regarding `COC(=O)N(C)c1c(N)nc(-n2nc(Cc3ccccc3F)c3ccccc32)nc1N`, the bioavailability in [1] was 32%. The half-life in [2] is 0.9 h.
Take `CC1(C)C(=O)Nc2nc(-n3nc(CCC(F)(F)F)c4cc(Cl)ccc43)nc(N)c21`: the bioavailability in data set [5] stood at 21%; in [1], 80%; in data set [12], 63%. The concentration at 4 h came out at 145 nM in data set [6], 392 nM in data set [11] and 36 nM in data set [14]. In addition, the half-life in data set [7] is 1.4 h; in data set [8], 1.3 h; in data set [9], 2.6 h. Moreover, the clearance was 34 mL/min/kg in data set [10], 29 mL/min/kg in [13] and 39 mL/min/kg in data set [15].
`COC(=O)N(C)c1c(N)nc(-n2nc(Cc3c(F)ccc(F)c3F)c3cc(Cl)ccc32)nc1N` yielded an AUCt/dose in data set [3] of 18 µM·kg·h/mg. Also, in data set [16], the half-life is 3.6 h. In data set [17], this compound yielded a clearance of 0.9 mL/min/kg. In addition, the bioavailability in data set [4] stood at 51%.
`COC(=O)N(C)c1c(N)nc(-n2nc(Cc3ccccc3F)c3cc(F)ccc32)nc1N`: in [3], the AUCt/dose was found to be 4.6 µM·kg·h/mg. The compound also gave a half-life in [16] of 1.5 h. Moreover, in data set [17], the clearance came to 1.4 mL/min/kg. In data set [4], this compound had a bioavailability of 22%.
Take `COC(=O)N(C)c1c(N)nc(-n2nc(Cc3c(F)ccc(F)c3F)c3ccccc32)nc1N`: the AUCt/dose in [3] was found to be 15.3 µM·kg·h/mg. Also, in [16], the half-life is 2.2 h. The compound further yielded a clearance in data set [17] of 1.6 mL/min/kg. In addition, in data set [4], the bioavailability was found to be 68%.
